Active and inactive are the calls of the source. The calls are words filed in the database; no cut-off is given here.
What was measured:
[1] = target: 11-beta-hydroxysteroid dehydrogenase 1 (Homo sapiens, UniProt P28845, C272S); test: Inhibition of N-terminal MKHQHQHQHQHQHQQPL-tagged 11beta-HSD1 C272S mutant (unknown origin) expressed in Escherichia coli BL21 (DE3) using cortisol as substrate measured for 1 hr in presence of NADPH by fluorescence assay
3T3-L1 [2] = test: Anti-adipogenic activity in mouse 3T3L1 preadipocytes assessed as reduction in S6K1 mRNA expression at 50 to 100 uM measured daily for 2 days under induction media containing dehydrocorticosterone/cortisone by SYBR green dye-based qRT-PCR analysis; type: functional, cell-based
3T3-L1 [3] = test: Anti-adipogenic activity in differentiated mouse 3T3L1 cells assessed as reduction in FASN mRNA expression at 50 to 100 uM measured after 2 to 7 days by SYBR green dye-based qRT-PCR analysis relative to control; type: functional
3T3-L1 [4] = test: Inhibition of cell differentiation in mouse 3T3L1 cells assessed as reduction in pre-adipocyte differentiation into matured adipocytes at 50 uM incubated for 48 hrs under induction medium containing dehydrocorticosterone/cortisone followed by shifting to differentiation medium and measured after 7 days by Oil red O staining-based microscopic analysis; type: functional
3T3-L1 [5] = test: Anti-adipogenic activity in mouse 3T3L1 preadipocytes assessed as reduction in C/EBPalpha mRNA expression at 50 to 100 uM measured daily for 2 days under induction media containing dehydrocorticosterone/cortisone by SYBR green dye-based qRT-PCR analysis; type: functional, cell-based
3T3-L1 [6] = test: Cytotoxicity against mouse 3T3L1 cells up to 1 mM measured after 72 hrs under induction medium containing dehydrocorticosterone/cortisone by celltiter-glo luminescent cell viability assay; type: cell-based; conditions: 3t3-l1, 72 h
[7] = Half life in mouse liver microsomes; type: ADME, Microsome
Homo sapiens [8] = test: Anti-adipogenic activity in human subcutaneous preadipocytes assessed as decrease in lipid accumulation at 50 uM measured after 3 days under induction medium containing hydrocortisone hemi-succinate by oil red O staining-based microscopic analysis; type: functional, cell-based
3T3-L1 [9] = test: Anti-adipogenic activity in differentiated mouse 3T3L1 cells assessed as reduction in 11beta-HSD1 expression at 50 uM measured on day 3 by Western blot analysis; type: functional, cell-based
[10] = Stability in mouse plasma; type: ADME, cell-free
3T3-L1 [11] = test: Cytotoxicity against mouse 3T3L1 preadipocytes up to 1 mM measured after 72 hrs under non-differentiating medium by celltiter-glo luminescent cell viability assay; type: cell-based; conditions: 3t3-l1, 72 h
3T3-L1 [12] = test: Anti-adipogenic activity in differentiated mouse 3T3L1 cells assessed as reduction in FABP4 mRNA expression at 50 to 100 uM measured after 2 to 7 days by SYBR green dye-based qRT-PCR analysis relative to control; type: functional
[13] = target: 11-beta-hydroxysteroid dehydrogenase 1 (Homo sapiens, UniProt P28845); test: Inhibition of 11beta-HSD1 in human microsomes using [3H] cortisone as substrate by scintillation proximity assay
Chain of 11-beta-hydroxysteroid dehydrogenase 1 (Homo sapiens, UniProt P28845) (P28845 whole entry): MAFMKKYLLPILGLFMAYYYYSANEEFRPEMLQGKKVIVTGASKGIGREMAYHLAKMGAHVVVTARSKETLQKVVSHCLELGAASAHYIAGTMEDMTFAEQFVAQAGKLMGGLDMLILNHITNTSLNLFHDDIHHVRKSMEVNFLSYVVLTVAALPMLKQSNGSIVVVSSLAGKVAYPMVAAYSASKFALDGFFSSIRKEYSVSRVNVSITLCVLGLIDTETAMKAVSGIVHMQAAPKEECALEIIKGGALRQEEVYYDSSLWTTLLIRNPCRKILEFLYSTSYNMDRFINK

[14] = target: T1, 11-beta-hydroxysteroid dehydrogenase type 2 (Homo sapiens, UniProt P80365); test: Inhibition of 11beta-HSD2 (unknown origin) expressed in HEK293 cells using cortisone as substrate measured after 2 hrs in presence of NAD+ by HTRF assay; type: ADME, cell-based
T1 sequence (P80365 whole entry): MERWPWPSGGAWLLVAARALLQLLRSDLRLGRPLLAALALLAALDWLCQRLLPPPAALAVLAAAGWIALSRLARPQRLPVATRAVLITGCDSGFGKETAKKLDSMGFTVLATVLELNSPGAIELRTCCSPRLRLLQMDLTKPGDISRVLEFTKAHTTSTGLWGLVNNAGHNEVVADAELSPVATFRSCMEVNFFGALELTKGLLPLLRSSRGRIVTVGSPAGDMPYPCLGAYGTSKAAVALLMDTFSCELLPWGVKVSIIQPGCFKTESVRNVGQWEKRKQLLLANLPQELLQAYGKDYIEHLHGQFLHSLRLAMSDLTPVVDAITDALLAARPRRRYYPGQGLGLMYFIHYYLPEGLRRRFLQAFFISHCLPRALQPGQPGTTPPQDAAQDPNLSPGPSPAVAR

3T3-L1 [15] = test: Anti-adipogenic activity in differentiated mouse 3T3L1 cells assessed as reduction in PGC1alpha expression at 50 uM measured on day 3 by Western blot analysis; type: functional, cell-based
3T3-L1 [16] = test: Anti-adipogenic activity in differentiated mouse 3T3L1 cells assessed as reduction in PPARgamma expression at 50 uM measured on day 7 by Western blot analysis; type: functional, cell-based
[17] = Volume of distribution at steady state in C57BL6 mouse at 5 to 30 mg/kg, iv by LC-MS analysis; type: ADME, organism-based; conditions: in vivo
3T3-L1 [18] = test: Anti-adipogenic activity in differentiated mouse 3T3L1 cells assessed as reduction in PPARgamma mRNA expression at 50 to 100 uM measured after 2 to 7 days by SYBR green dye-based qRT-PCR analysis; type: functional, cell-based
3T3-L1 [19] = test: Anti-adipogenic activity in differentiated mouse 3T3L1 cells assessed as reduction in Glut4 mRNA expression at 50 to 100 uM measured after 2 to 7 days by SYBR green dye-based qRT-PCR analysis; type: functional, cell-based
3T3-L1 [20] = test: Anti-adipogenic activity in mouse 3T3L1 preadipocytes assessed as decrease in lipid accumulation at 50 uM measured after 3 days under induction medium containing dehydrocorticosterone/cortisone by Oil red O staining-based microscopic analysis; type: functional, cell-based
3T3-L1 [21] = test: Anti-adipogenic activity in differentiated mouse 3T3L1 cells assessed as reduction in mitochondrial mass at 50 uM measured on day 7 by mitotracker deep red/hoechst 33342 staining-based confocal imaging analysis; type: functional, cell-based
Fibroblast = test: Effect on nascent protein synthesis in mouse fibroblasts assessed as reduction in O-Propargyl-puromycin incorporation at 50 uM measured after 2 hrs by fluorescent azide/pico green dye-based confocal microscopic analysis; type: ADME, cell-based
3T3-L1 [22] = test: Anti-adipogenic activity in mouse 3T3L1 preadipocytes assessed as restoration of cell morphology at 50 uM incubated for 48 hrs under induction medium containing dehydrocorticosterone/cortisone followed by shifting to differentiation medium and measured after 7 days by mitotracker red/lipidtox green staining-based confocal microscopic analysis; type: functional
3T3-L1 [23] = test: Anti-adipogenic activity in differentiated mouse 3T3L1 cells assessed as reduction in 11beta-HSD1 mRNA expression at 50 to 100 uM measured after 2 to 7 days by SYBR green dye-based qRT-PCR analysis; type: functional, cell-based
3T3-L1 [24] = test: Anti-adipogenic activity in mouse 3T3L1 preadipocytes assessed as decrease in lipid accumulation at 10 uM incubated for 48 hrs under induction medium containing dehydrocorticosterone/cortisone followed by shifting to differentiation medium and measured after 7 days by Oil red O staining-based microscopic analysis; type: functional, cell-based
Homo sapiens [25] = test: Anti-adipogenic activity in human subcutaneous preadipocytes assessed as reduction in pre-adipocyte differentiation into matured adipocytes at 50 uM incubated for 48 hrs under induction medium containing hydrocortisone hemi-succinate prior to compound washout followed by shifting to differentiation medium containing compound supplemented with fresh medium every 48 to 72 hrs for 9 to 14 days by oil red O staining-based microscopic analysis; type: functional, cell-based
3T3-L1 [26] = test: Cell cycle arrest in mouse 3T3L1 cells up to 1 mM measured after 24 hrs under induction medium containing dehydrocorticosterone/cortisone by propidium iodide staining-based flow cytometry; type: ADME; conditions: 3t3-l1, 24 h
[27] = Half life in human liver microsomes; type: ADME, Microsome
[28] = Half life in simulated gastric fluid; type: ADME
3T3-L1 [29] = test: Anti-adipogenic activity in differentiated mouse 3T3L1 cells assessed as reduction in PGC1alpha mRNA expression at 50 to 100 uM measured after 2 to 7 days by SYBR green dye-based qRT-PCR analysis relative to control; type: functional
3T3-L1 [30] = test: Effect on total GR expression in differentiated mouse 3T3L1 cells at 50 uM measured on day 3 and 7 by Western blot analysis; type: ADME, cell-based; conditions: 3t3-l1, 50 µM

Chain of 11-beta-hydroxysteroid dehydrogenase 1 (Homo sapiens, UniProt P28845, C272S) (P28845 whole entry C272S): as the sequence (P28845 whole entry) above, with C272S counted along it

In the case of `CC1=CC[C@@]2(C[C@@H]1O)[C@@H](C(=O)O)CC[C@H]2C(C)C`, the IC50 [1] is reported as 4.1 µM, the Activity (3T3-L1 [2]) is reported as “Active” and the “fold change (FC)” value (3T3-L1 [3]) is reported as under 10. For the same compound, the inhibition (3T3-L1 [4]) was “Active”, the Activity (3T3-L1 [5]) was “Active” and the Activity (3T3-L1 [6]) was “Non-Toxic”. The t1/2 [7] was 1.33 h, the Activity (Homo sapiens [8]) was “inactive” and the Activity (3T3-L1 [9]) was “inactive”. For the same compound, the Stability [10] was “Unstable”, the Activity (3T3-L1 [11]) was “Non-Toxic” and the “fold change (FC)” value (3T3-L1 [12]) was under 10. The IC50 [13] was 0.013 µM, the IC50 [14] was over 500 µM and the Activity (3T3-L1 [15]) was “inactive”. The Activity (3T3-L1 [16]) was “Active”, the Vdss [17] was 0.247 L/kg and the Activity (3T3-L1 [18]) was “Active”. For the same compound, the Activity (3T3-L1 [19]) was “Active”, the Activity (3T3-L1 [20]) was “inactive” and the Activity (3T3-L1 [21]) was “Active”. For the same compound, the Activity (Fibroblast) was “Non-Toxic”, the Activity (3T3-L1 [22]) was “Active” and the Activity (3T3-L1 [23]) was “Active”. The Activity (3T3-L1 [24]) was “Active”, the Activity (Homo sapiens [25]) was “Active” and the Activity (3T3-L1 [26]) was “Non-Toxic”. For the same compound, the t1/2 [27] was 1.18 h, the half-life [28] was under 2 h and the “fold change (FC)” value (3T3-L1 [29]) was under 10. For the same compound, the Activity (3T3-L1 [30]) was “Non-Toxic”.
